Laboratory results published in the NIST ThermoML archive (doi:10.1021/acs.jced.5b00156).
Numbers after ± are expanded uncertainties.

Experiments:
[1] = 101.33 kPa, Liquid; for viscosity: Concentric cylinders viscometry; for mass density: vibrating tube
[2] = refractive index (Na D-line) (dimensionless); conditions: 101.33 kPa, Liquid, Standard Abbe refractometry

Row | SMILES | viscosity ([1]; 288.15 K) [mPa·s] | mass density ([1]; 288.15 K) [kg/m3] | viscosity ([1]; 293.15 K) [mPa·s] | mass density ([1]; 293.15 K) [kg/m3] | viscosity ([1]; 298.15 K) [mPa·s] | mass density ([1]; 298.15 K) [kg/m3] | viscosity ([1]; 303.15 K) [mPa·s] | mass density ([1]; 303.15 K) [kg/m3] | viscosity ([1]; 308.15 K) [mPa·s] | mass density ([1]; 308.15 K) [kg/m3] | viscosity ([1]; 313.15 K) [mPa·s] | mass density ([1]; 313.15 K) [kg/m3] | viscosity ([1]; 318.15 K) [mPa·s] | mass density ([1]; 318.15 K) [kg/m3] | viscosity ([1]; 323.15 K) [mPa·s] | mass density ([1]; 323.15 K) [kg/m3] | refractive index ([2]; 288.15 K) | refractive index ([2]; 293.15 K) | refractive index ([2]; 298.15 K) | refractive index ([2]; 303.15 K) | also measured
1 | COC(=O)c1ccccc1C(=O)OC [dimethyl 1,2-benzenedicarboxylate] | 23.53 ± 0.49 | 1196.23 ± 0.33 | 17.7 ± 0.37 | 1191.54 ± 0.33 | 13.93 ± 0.29 | 1186.87 ± 0.33 | 11.15 ± 0.23 | 1182.2 ± 0.33 | 9.123 ± 0.19 | 1177.55 ± 0.33 | 7.612 ± 0.16 | 1172.91 ± 0.32 | 6.453 ± 0.13 | 1168.28 ± 0.32 | 5.578 ± 0.12 | 1163.65 ± 0.32 | 1.51708 ± 0.00053 | 1.51494 ± 0.00053 | 1.51286 ± 0.00053 | 1.51083 ± 0.00053 | refractive index ([2]; 308.15 K): 1.50885 ± 0.00053; refractive index ([2]; 313.15 K): 1.50693 ± 0.00053; refractive index ([2]; 318.15 K): 1.50507 ± 0.00053; refractive index ([2]; 323.15 K): 1.50303 ± 0.00053
2 | COC(=O)CCCCC(=O)OC [dimethyl 1,6-hexanedioate] | 3.778 ± 0.079 | 1066.79 ± 0.28 | 3.313 ± 0.069 | 1061.92 ± 0.27 | 2.937 ± 0.062 | 1057.05 ± 0.27 | 2.629 ± 0.055 | 1052.18 ± 0.27 | 2.366 ± 0.05 | 1047.3 ± 0.27 | 2.143 ± 0.045 | 1042.41 ± 0.27 | 1.953 ± 0.041 | 1037.52 ± 0.26 | 1.794 ± 0.038 | 1032.62 ± 0.26 | 1.43082 ± 0.00053 | 1.42876 ± 0.00053 | 1.42669 ± 0.00053 | 1.42463 ± 0.00053 | refractive index ([2]; 308.15 K): 1.42255 ± 0.00053; refractive index ([2]; 313.15 K): 1.42048 ± 0.00053; refractive index ([2]; 318.15 K): 1.41835 ± 0.00053; refractive index ([2]; 323.15 K): 1.41631 ± 0.00053
